Test results taken from patent US11498904B2, “Substituted biaryl compounds as indoleamine 2,3-dioxygenase (IDO) inhibitors” (MERCK SHARP & DOHME CORP., priority 2017, dated 2022).
pIC50: −log10 of the molar value. Counter-ions that a name gives are not always drawn.

Target: IDO1 (Homo sapiens, UniProt P14902)
Test: IDO1 Human Whole Blood Assay
Format: cell-based
Details: LPS and IFNγ 100 ng/mL, 18 h, kynurenine by LC/MS/MS, read-out: Human Whole Blood Potency, IC50
Method: IDO1 Human Whole Blood Assay
Compounds to be tested were serially diluted in ten 3-fold steps in DMSO starting from 10 mM. […] LPS and IFNγ was prepared in RPMI to a 10× of final conc. (1000 ng/mL), final concentration is 100 ng/mL.
240 μL of blood was transferred to each of the wells of a v-bottom 96 well plate. 30 μL of compound was transferred from intermediate dilution plate, and incubated for 15 min. 30 μL from stimulants was then transferred to blood and mixed thoroughly. Plate was covered with breathable membrane and incubated at 37° C. for overnight (18 h).
On day 2 isotope labeled standard of kynurenine and tryptophan was made in water at 10× concentration and 30 μL was added to the blood at 3 μM final concentration. The assay plates were centrifuged at 300×G for 10 min with no brake to separate plasma from red blood cells. 60 μL of plasma samples was removed without disturbing red blood cells. Plasma was diluted with RPMI in 1:1 ratio and proteins were precipitated out with two volume of
Acetonitrile. The plates were centrifuged at 4000×G for 60 min. 20 μL of supernatant was carefully transferred to a 384 well plate contain 40 μL of 0.1% formic acid in water and analyzed by LC/MS/MS.
LC/MS/MS analyses were performed using Thermo Fisher's LX4-TSQ Quantum Ultra system. This system consists of four Agilent binary high-performance liquid chromatography (HPLC) pumps and a TSQ Quantum Ultra triple quadrupole MS/MS instrument. For each sample, 5 μL were injected onto an Atlantis T3 column (2.1 mm×150 mm, 3 μm particle size) from Waters. The mobile phase gradient pumped at 0.8 mL/min was used to elute the analytes from the column at 25° C. […] Mobile phase A consisted of 0.1% formic acid in water. Mobile phase B consisted of 0.1% of formic acid in acetonitrile. Data was acquired in positive mode using a HESI interface. The operational parameters for the TSQ Quantum Ultra instrument were a spray voltage of 4000 V, capillary temperature of 380° C., vaporizer temperature 400° C., shealth gas 60 arbitrary units, Aux gas 20 arbitrary units, tube lens 85 and collision gas 1.2 mTorr. SRM chromatograms of kynurenine (Q1: 209.2>Q3:94.0) and internal standard (Q1: 215.3>Q3:98.2) were collected for 90 sec. The peak area was integrated by Xcalibur Quan software. The ratios between the kynurenine generated in the reaction and 2D6-Kynurenine spiked-in internal standard were used to generate percentage inhibition and IC50 values. Compounds were titrated and IC50's were calculated by 4 parameter sigmoidal curve fitting formula.
The biological activity data of selective compounds using the IDO1 human whole blood assay described above are summarized in the table below.

IDO1, sequence (P14902 whole entry): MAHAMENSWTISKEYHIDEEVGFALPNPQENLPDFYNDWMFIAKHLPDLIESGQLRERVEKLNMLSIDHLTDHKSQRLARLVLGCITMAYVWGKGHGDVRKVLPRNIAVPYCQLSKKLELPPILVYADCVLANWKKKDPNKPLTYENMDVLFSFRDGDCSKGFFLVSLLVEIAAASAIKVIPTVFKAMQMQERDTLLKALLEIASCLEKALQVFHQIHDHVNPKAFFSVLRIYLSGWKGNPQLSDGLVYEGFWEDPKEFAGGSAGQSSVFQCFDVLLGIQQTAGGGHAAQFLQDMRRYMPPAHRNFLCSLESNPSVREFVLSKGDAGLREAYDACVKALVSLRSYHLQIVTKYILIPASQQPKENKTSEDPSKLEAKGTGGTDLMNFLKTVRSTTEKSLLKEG

pIC50	Compound
6.73	C[C@H](O)c1cc(C(F)(F)F)ncc1-c1ccc(C2(NC(=O)c3ccc(F)cc3)CC2)cc1 [Example 50, (S)-4-fluoro-N-(1-(4-(4-(1-hydroxyethyl)-6-(trifluoromethyl)pyridin-3-yl)phenyl)cyclopropyl)benzamide]
6.00	O=C(NC1(c2ccc(-c3cnc(C(F)(F)F)cc3CO)cc2)CCC1)c1ccc(F)cc1 [Example 53]
6.63	C[C@@H](O)c1cc(C(F)(F)F)ncc1-c1ccc(C2(NC(=O)c3ccc(F)cc3)CC2)cc1 [Example 51, (R)-4-fluoro-N-(1-(4-(4-(1-hydroxyethyl)-6-(trifluoromethyl)pyridin-3-yl)phenyl)cyclopropyl)benzamide, 2,2,2-trifluoroacetate salt]
5.97	N#Cc1ccc(C(=O)NC2(c3ccc(-c4cnc(C(F)(F)F)cc4CO)cc3)CCC2)cc1 [Example 35, 4-cyano-N-(1-(4-(4-(hydroxymethyl)-6-(trifluoromethyl)pyridin-3-yl)phenyl)cyclobutyl)benzamide]
6.15	O=C(NC1(c2ccc(-c3cnc(C(F)(F)F)cc3CO)cc2)CC1)c1ccc(Cl)cc1 [Example 46, 4-chloro-N-(1-(4-(4-(hydroxymethyl)-6-(trifluoromethyl)pyridin-3-yl)phenyl)cyclopropyl)benzamide]
6.24	CC(C)Oc1cc(CO)c(-c2ccc(C3(NC(=O)c4ccc(F)cc4)CC3)cc2)cn1 [Example 49, 4-fluoro-N-(1-(4-(4-(hydroxymethyl)-6-isopropoxypyridin-3-yl)phenyl)cyclopropyl)benzamide]
6.82	CC(C)(O)c1cc(C(F)(F)F)ncc1-c1ccc(C2(NC(=O)c3ccc(F)cc3)CCC2)cc1 [Example 52, 4-fluoro-N-(1-(4-(4-(2-hydroxypropan-2-yl)-6-(trifluoromethyl)pyridin-3-yl)phenyl)cyclobutyl)benzamide]

More lines, now with the values behind:

Compound	pIC50
CC1CC1(NC(=O)c1ccc(F)cc1)c1ccc(-c2cnc(C(F)(F)F)cc2C(C)(C)O)nc1 (single isomer, unassigned) [Example 56, 4-fluoro-N-(1-(4′-(2-hydroxypropan-2-yl)-6′-(trifluoromethyl)-[2,3′-bipyridin]-5-yl)-2-methylcyclopropyl)benzamide]	6.44
Cc1cc(C2CC2)ncc1-c1ccc(C2(NC(=O)c3ccc(C#N)cc3)CCC2)nc1 [Example 42, 4-Cyano-N-(1-(6′-cyclopropyl-4′-methyl-[3,3′-bipyridin]-6-yl)cyclobutyl)benzamide]	6.41
CC1CC1(NC(=O)c1ccc(F)cc1)c1ccc(-c2cnc(C(F)(F)F)cc2C(C)(C)O)nc1 (single isomer, unassigned) [Example 59]	6.77
N#Cc1ccc(C(=O)NC2(c3ccc(-c4ccc(C5CC5)nc4CO)cc3)CCC2)cc1 [Example 25, 4-cyano-N-(1-(4-(6-cyclopropyl-2-(hydroxymethyl)pyridin-3-yl)phenyl)cyclobutyl)benzamide]	6.23
Cc1cc(C2CC2)ncc1-c1ccc(C2(NC(=O)c3ccc(C#N)cc3)CCC2)cc1 [Example 12, 4-cyano-N-(1-(4-(6-cyclopropyl-4-methylpyridin-3-yl)phenyl)cyclobutyl)benzamide]	6.61
CC1CC1(NC(=O)c1ccc(F)cc1)c1ccc(-c2cnc(C(F)(F)F)cc2C(C)(C)O)nc1 (single isomer, unassigned) [Example 58]	6.55
CC1CC1(NC(=O)c1ccc(F)cc1)c1ccc(-c2cnc(C(F)(F)F)cc2C(C)(C)O)nc1 (single isomer, unassigned) [Example 60]	6.68
Cc1cc(C2CC2)ncc1-c1ccc(C2(NC(=O)c3ccc(C#N)cc3)CCC2)cc1F [Example 7, 4-Cyano-N-(1-(4-(6-cyclopropyl-4-methylpyridin-3-yl)-3-fluorophenyl)cyclobutyl)benzamide]	6.40
COc1cc(C)c(-c2ccc(C3(NC(=O)c4ccc(C#N)cc4)CCC3)cc2)c(C)n1 [Example 36, 4-cyano-N-(1-(4-(6-methoxy-2,4-dimethylpyridin-3-yl)phenyl)cyclobutyl)benzamide]	6.51
O=C(NC1(c2ccc(-c3cnc(OC4CC4)cc3CO)cc2)CC1)c1ccc(F)cc1 [Example 48, N-(1-(4-(6-cyclopropoxy-4-(hydroxymethyl)pyridin-3-yl)phenyl)cyclopropyl)-4-fluorobenzamide]	6.04
CC(C)(O)c1cc(OC2CC2)ncc1-c1ccc(C2(NC(=O)c3ccc(F)cc3)CCC2)cc1 [Example 54, N-(1-(4-(6-cyclopropoxy-4-(2-hydroxypropan-2-yl)pyridin-3-yl)phenyl)cyclobutyl)-4-fluorobenzamide]	6.47
CC(C)(O)c1cc(OC2CC2)ncc1-c1ccc(C2(NC(=O)c3ccc(F)cc3)CC2)cc1 [Example 47, N-(1-(4-(6-cyclopropoxy-4-(2-hydroxypropan-2-yl)pyridin-3-yl)phenyl)cyclopropyl)-4-fluorobenzamide]	6.90
